Assay results: patent US9409952B2, “Peptide-compound cyclization method” (Chugai Seiyaku Kabushiki Kaisha, priority 2011, dated 2016)
Starred links: 1 amine or outer side, 2 acyl side, 3 side chain; linkers in the order of their positions; H or OH if unused. Positions of bridges follow the written chain, without caps; N, C: chain ends. Non-standard residues stand in square brackets, D forms with d. Residues, ends and D or L forms follow the SMILES beside them. ξ: configuration not given here. *: point of attachment. NMeF = CN[C@@H](Cc1ccccc1)C(=O)O; NMeI = CC[C@H](C)[C@H](NC)C(=O)O; NMeβAla = CN(CCC(=O)[*:2])[*:1]; NMeL = CN[C@@H](CC(C)C)C(=O)O; NMeV = CN[C@H](C(=O)O)C(C)C; Pip = O=C(O)[C@@H]1CCCCN1; NMeA = CN[C@@H](C)C(=O)O; Piperidide = C1CCN(*)CC1; dNMeA = CN[C@H](C)C(=O)O; ξF = NC(Cc1ccccc1)C(=O)O; Aze = O=C(O)[C@@H]1CCN1; Sar = CNCC(=O)O; tBu = CC(C)(C)*

Assay: Metabolic stability in human hepatic microsome
Format: in vitro ADME
Settings: human, microsomes, pH 7.4, CL NADPH(+)

Compound | microsomal CLint at 1 uM [µL/min/mg]
CC[C@H](C)[C@@H]1NC(=O)[C@@H]2CCCN2C(=O)CNC(=O)[C@H](COC(C)(C)C)NC(=O)[C@H](CC(C)C)N(C)C(=O)C(Cc2ccccc2)NC(=O)CN(C)C(=O)C[C@@H](C(=O)N2CCCCC2)NC(=O)[C@H](CC(C)C)N(C)C(=O)[C@H](Cc2ccccc2)NC(=O)[C@H]([C@@H](C)O)NC(=O)[C@H](C)N(C)C1=O (stereo partly drawn) [DP-517] ([Sar][ξF][NMeL]S(tBu)GPI[NMeA]TF[NMeL]D-Piperidide; lactam N-12) | 31

Same assay, conditions: microsomes, pH 7.4; human hepatic microsome, NADPH(+); read-out: CL NADPH(+)

Compound | microsomal CLint at 1 uM [µL/min/mg]
CC[C@H](C)[C@@H]1NC(=O)[C@H](C)NC(=O)[C@H](CC(C)C)N(C)C(=O)[C@H](CC(C)C)NC(=O)[C@H](Cc2ccccc2)NC(=O)[C@H](C(C)C)NC(=O)[C@H](C)N(C)C(=O)[C@H](CC(C)C)NC(=O)[C@H](Cc2ccccc2)N(C)C(=O)[C@H]([C@@H](C)O)NC(=O)CNC(=O)[C@H](C)NC(=O)C[C@@H](C(=O)N2CCCCC2)NC1=O [DP-87] (AGT[NMeF]L[NMeA]VFL[NMeL]AID-Piperidide; lactam N-13) | 120
CC(C)C[C@H]1C(=O)N(C)[C@@H](Cc2ccccc2)C(=O)N[C@@H](C)C(=O)N2CCC[C@H]2C(=O)N(C)[C@@H](CC(C)C)C(=O)N(C)[C@@H](Cc2ccccc2)C(=O)N(C)[C@@H](C(C)C)C(=O)N[C@H](C(=O)N2CCCCC2)CC(=O)N[C@H](C)C(=O)N[C@@H]([C@@H](C)O)C(=O)N(C)CC(=O)N1C [DP-141] ([dA]T[Sar][NMeL][NMeF]AP[NMeL][NMeF][NMeV]D-Piperidide; lactam N-11) | 77
CC[C@H](C)[C@@H]1NC(=O)[C@H](C)NC(=O)C[C@@H](C(=O)N2CCCCC2)NC(=O)[C@H](Cc2ccccc2)NC(=O)[C@H](C)NC(=O)[C@H]([C@@H](C)O)NC(=O)[C@H](Cc2ccccc2)NC(=O)[C@H](CC(C)C)N(C)C(=O)[C@H](CC(C)C)NC(=O)[C@H](Cc2ccccc2)NC(=O)[C@H](CC(C)C)NC1=O [DP-320] (AILFL[NMeL]FTAFD-Piperidide; lactam N-11) | 36
CC[C@H](C)[C@@H]1NC(=O)[C@H](CC(C)C)N(C)C(=O)[C@H](Cc2ccccc2)NC(=O)[C@H](CC(C)C)N(C)C(=O)[C@H](CC(C)C)NC(=O)[C@H](Cc2ccccc2)NC(=O)[C@H]([C@@H](C)O)NC(=O)[C@H](C)N(C)C(=O)[C@H](CC(C)C)NC(=O)CCN(C)C(=O)C[C@@H](C(=O)N2CCCCC2)NC1=O [DP-325] ([NMeβAla]L[NMeA]TFL[NMeL]F[NMeL]ID-Piperidide; lactam N-11) | 99
CC(C)C[C@@H]1NC(=O)CN(C)C(=O)[C@H](C)NC(=O)[C@H]([C@@H](C)O)NC(=O)[C@@H](C)N(C)C(=O)C[C@@H](C(=O)N2CCCCC2)NC(=O)[C@H](CC(C)C)N(C)C(=O)[C@H](CC(C)C)NC(=O)[C@H](C(C)C)N(C)C(=O)[C@H](CC(C)C)NC(=O)[C@H](Cc2ccccc2)NC1=O [DP-328] ([dNMeA]TA[Sar]LFL[NMeV]L[NMeL]D-Piperidide; lactam N-11) | 32
CC[C@H](C)[C@@H]1NC(=O)[C@H](C(C)C)N(C)C(=O)[C@H](Cc2ccccc2)N(C)C(=O)[C@H](Cc2ccccc2)NC(=O)[C@H](CC(C)C)N(C)C(=O)[C@H](C)N(C)C(=O)[C@H]([C@@H](C)O)NC(=O)[C@H](C)N(C)C(=O)C[C@@H](C(=O)N2CCCCC2)NC(=O)[C@H](CC(C)C)N(C)C1=O [DP-333] ([NMeA]T[NMeA][NMeL]F[NMeF][NMeV]I[NMeL]D-Piperidide; lactam N-10) | 157
CC(C)C[C@@H]1NC(=O)[C@H](Cc2ccccc2)NC(=O)[C@H](CC(C)C)N(C)C(=O)[C@H](Cc2ccccc2)NC(=O)[C@@H](C)N(C)C(=O)C[C@@H](C(=O)N2CCCCC2)NC(=O)[C@H](Cc2ccccc2)N(C)C(=O)CNC(=O)[C@H]([C@@H](C)O)NC(=O)[C@H](CC(C)C)NC1=O [DP-486] ([dNMeA]F[NMeL]FLLTG[NMeF]D-Piperidide; lactam N-10) | 87
CC[C@H](C)[C@@H]1NC(=O)[C@H](C(C)C)N(C)C(=O)[C@H](C)N(C)C(=O)C[C@@H](C(=O)N2CCCCC2)NC(=O)[C@H](CC(C)C)NC(=O)[C@H](Cc2ccccc2)N(C)C(=O)[C@H](CC(C)C)N(C)C(=O)[C@H](CC(C)C)NC(=O)[C@H]([C@@H](C)O)NC(=O)[C@H](Cc2ccccc2)NC1=O [DP-488] ([NMeA][NMeV]IFTL[NMeL][NMeF]LD-Piperidide; lactam N-10) | 261
CC(C)C[C@@H]1NC(=O)[C@H](Cc2ccccc2)N(C)C(=O)[C@H](C)N(C)C(=O)C[C@@H](C(=O)N2CCCCC2)NC(=O)[C@H]([C@@H](C)O)NC(=O)[C@H](CC(C)C)N(C)C(=O)[C@H](Cc2ccccc2)NC(=O)[C@H](CC(C)C)N(C)C(=O)[C@H](CC(C)C)N(C)C1=O [DP-494] ([NMeA][NMeF]L[NMeL][NMeL]F[NMeL]TD-Piperidide; lactam N-9) | 330
CC[C@H](C)[C@@H]1NC(=O)[C@H](C)N(C)C(=O)CN(C)C(=O)C[C@@H](C(=O)N2CCCCC2)NC(=O)[C@H](CC(C)C)N(C)C(=O)[C@H](C)N(C)C(=O)[C@H](Cc2ccccc2)N(C)C(=O)[C@H]([C@@H](C)O)NC(=O)[C@H](Cc2ccccc2)N(C)C(=O)[C@H](CC(C)C)N(C)C1=O [DP-519] ([Sar][NMeA]I[NMeL][NMeF]T[NMeF][NMeA][NMeL]D-Piperidide; lactam N-10) | 157
CC(C)C[C@@H]1NC(=O)[C@H](CC(C)C)NC(=O)[C@H](C)N(C)C(=O)C[C@@H](C(=O)N2CCCCC2)NC(=O)[C@H](C(C)C)N(C)C(=O)[C@H](CC(C)C)NC(=O)[C@H](Cc2ccccc2)NC(=O)[C@H]([C@@H](C)O)NC(=O)[C@@H]2CCN2C(=O)[C@H](CC(C)C)NC(=O)[C@H](C)NC1=O [DP-548] ([NMeA]LLAL[Aze]TFL[NMeV]D-Piperidide; lactam N-11) | 16
CC[C@H](C)[C@H]1C(=O)NCC(=O)N(C)[C@@H](CC(C)C)C(=O)N[C@@H]([C@@H](C)O)C(=O)N2CCC[C@H]2C(=O)N[C@@H](Cc2ccccc2)C(=O)N[C@H](C(=O)N2CCCCC2)CC(=O)N2CC[C@H]2C(=O)N[C@@H](Cc2ccccc2)C(=O)N(C)[C@@H](CC(C)C)C(=O)N[C@@H](CC(C)C)C(=O)N1C [DP-550] ([Aze]F[NMeL]L[NMeI]G[NMeL]TPFD-Piperidide; lactam N-11) | 108
CC[C@H](C)[C@H]1C(=O)NCC(=O)N(C)[C@@H](CC(C)C)C(=O)N[C@@H]([C@@H](C)O)C(=O)N2CCC[C@H]2C(=O)N[C@@H](Cc2ccccc2)C(=O)N[C@H](C(=O)N2CCCCC2)CC(=O)N(C)[C@@H](C)C(=O)N[C@@H](Cc2ccccc2)C(=O)N2CC[C@H]2C(=O)N[C@@H](CC(C)C)C(=O)N1C [DP-552] ([NMeA]F[Aze]L[NMeI]G[NMeL]TPFD-Piperidide; lactam N-11) | 157
CC[C@H](C)[C@H]1C(=O)NCC(=O)N(C)[C@@H](CC(C)C)C(=O)N[C@@H]([C@@H](C)O)C(=O)N2CCC[C@H]2C(=O)N[C@@H](Cc2ccccc2)C(=O)N[C@H](C(=O)N2CCCCC2)CC(=O)N(C)[C@@H](C)C(=O)N[C@@H](Cc2ccccc2)C(=O)N2CCCC[C@H]2C(=O)N[C@@H](CC(C)C)C(=O)N1C [DP-553] ([NMeA]F[Pip]L[NMeI]G[NMeL]TPFD-Piperidide; lactam N-11) | 106
CC(C)C[C@@H]1NC(=O)[C@H](CC(C)C)N(C)C(=O)[C@H](Cc2ccccc2)NC(=O)[C@H](C)N(C)C(=O)C[C@@H](C(=O)N2CCCCC2)NC(=O)[C@H](Cc2ccccc2)NC(=O)[C@@H]2CCCN2C(=O)[C@H]([C@@H](C)O)NC(=O)[C@H](CC(C)C)N(C)C(=O)CNC(=O)[C@@H]2CCN2C1=O [DP-554] ([NMeA]F[NMeL]L[Aze]G[NMeL]TPFD-Piperidide; lactam N-11) | 80
CC(C)C[C@@H]1NC(=O)[C@H](CC(C)C)N(C)C(=O)[C@H](Cc2ccccc2)NC(=O)[C@H](C)N(C)C(=O)C[C@@H](C(=O)N2CCCCC2)NC(=O)[C@H](Cc2ccccc2)NC(=O)[C@@H]2CCCN2C(=O)[C@H]([C@@H](C)O)NC(=O)[C@H](CC(C)C)N(C)C(=O)CNC(=O)[C@@H]2CCCCN2C1=O [DP-555] ([NMeA]F[NMeL]L[Pip]G[NMeL]TPFD-Piperidide; lactam N-11) | 95
CC[C@H](C)[C@H]1C(=O)NCC(=O)N2CC[C@H]2C(=O)N[C@@H]([C@@H](C)O)C(=O)N2CCC[C@H]2C(=O)N[C@@H](Cc2ccccc2)C(=O)N[C@H](C(=O)N2CCCCC2)CC(=O)N(C)[C@@H](C)C(=O)N[C@@H](Cc2ccccc2)C(=O)N(C)[C@@H](CC(C)C)C(=O)N[C@@H](CC(C)C)C(=O)N1C [DP-556] ([NMeA]F[NMeL]L[NMeI]G[Aze]TPFD-Piperidide; lactam N-11) | 65
CC[C@H](C)[C@H]1C(=O)NCC(=O)N2CCCC[C@H]2C(=O)N[C@@H]([C@@H](C)O)C(=O)N2CCC[C@H]2C(=O)N[C@@H](Cc2ccccc2)C(=O)N[C@H](C(=O)N2CCCCC2)CC(=O)N(C)[C@@H](C)C(=O)N[C@@H](Cc2ccccc2)C(=O)N(C)[C@@H](CC(C)C)C(=O)N[C@@H](CC(C)C)C(=O)N1C [DP-557] ([NMeA]F[NMeL]L[NMeI]G[Pip]TPFD-Piperidide; lactam N-11) | 96
CC[C@H](C)[C@H]1C(=O)NCC(=O)N(C)[C@@H](CC(C)C)C(=O)N[C@@H]([C@@H](C)O)C(=O)N2CC[C@H]2C(=O)N[C@@H](Cc2ccccc2)C(=O)N[C@H](C(=O)N2CCCCC2)CC(=O)N(C)[C@@H](C)C(=O)N[C@@H](Cc2ccccc2)C(=O)N(C)[C@@H](CC(C)C)C(=O)N[C@@H](CC(C)C)C(=O)N1C [DP-558] ([NMeA]F[NMeL]L[NMeI]G[NMeL]T[Aze]FD-Piperidide; lactam N-11) | 133
CC[C@H](C)[C@H]1C(=O)NCC(=O)N(C)[C@@H](CC(C)C)C(=O)N[C@@H]([C@@H](C)O)C(=O)N2CCCC[C@H]2C(=O)N[C@@H](Cc2ccccc2)C(=O)N[C@H](C(=O)N2CCCCC2)CC(=O)N(C)[C@@H](C)C(=O)N[C@@H](Cc2ccccc2)C(=O)N(C)[C@@H](CC(C)C)C(=O)N[C@@H](CC(C)C)C(=O)N1C [DP-559] ([NMeA]F[NMeL]L[NMeI]G[NMeL]T[Pip]FD-Piperidide; lactam N-11) | 145
